Experimental data reported in PubChem BioAssay (NCI).
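Compound exposure: 48 hours, 5 concentrations, 96-well plates. Here, GI50 denotes the concentration required for 50% inhibition of growth. TGI: total growth inhibition.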

Tests used:
Test in all cases: NCI tumour cell line growth inhibition, 48 h
HCC-2998 colon = test system: HCC-2998 colon
K-562 leukemia = test system: K-562 leukemia
OVCAR-4 ovarian = test system: OVCAR-4 ovarian
KM12 colon = test system: KM12 colon
T-47D breast = test system: T-47D breast
SNB-75 CNS = test system: SNB-75 CNS
CAKI-1 renal = test system: CAKI-1 renal
786-0 renal = test system: 786-0 renal
SK-OV-3 ovarian = test system: SK-OV-3 ovarian
CCRF-CEM leukemia = test system: CCRF-CEM leukemia
RXF 393 renal = test system: RXF 393 renal
SW-620 colon = test system: SW-620 colon
NCI-H23 lung = test system: NCI-H23 lung
OVCAR-5 ovarian = test system: OVCAR-5 ovarian
SK-MEL-28 melanoma = test system: SK-MEL-28 melanoma
MDA-MB-231 breast = test system: MDA-MB-231 breast
SK-MEL-5 melanoma = test system: SK-MEL-5 melanoma
A498 renal = test system: A498 renal
HCT-116 colon = test system: HCT-116 colon
OVCAR-8 ovarian = test system: OVCAR-8 ovarian
SF-539 CNS = test system: SF-539 CNS
LOX IMVI melanoma = test system: LOX IMVI melanoma
M14 melanoma = test system: M14 melanoma
UACC-62 melanoma = test system: UACC-62 melanoma
COLO 205 colon = test system: COLO 205 colon
HT29 colon = test system: HT29 colon
RPMI-8226 leukemia = test system: RPMI-8226 leukemia
UO-31 renal = test system: UO-31 renal
MALME-3M melanoma = test system: MALME-3M melanoma
SR leukemia = test system: SR leukemia
MCF7 breast = test system: MCF7 breast
EKVX NSCLC = test system: EKVX NSCLC
U251 CNS = test system: U251 CNS
NCI-H226 lung = test system: NCI-H226 lung
SF-268 CNS = test system: SF-268 CNS
NCI-H460 lung = test system: NCI-H460 lung
SN12C renal = test system: SN12C renal
SF-295 CNS = test system: SF-295 CNS
HOP-62 NSCLC = test system: HOP-62 NSCLC
HOP-92 NSCLC = test system: HOP-92 NSCLC
HS 578T breast = test system: HS 578T breast
TK-10 renal = test system: TK-10 renal
HL-60(TB) leukemia = test system: HL-60(TB) leukemia
BT-549 breast = test system: BT-549 breast
DU-145 prostate = test system: DU-145 prostate
HCT-15 colon = test system: HCT-15 colon
A549 NSCLC = test system: A549 NSCLC
SK-MEL-2 melanoma = test system: SK-MEL-2 melanoma
MDA-MB-435 = test system: MDA-MB-435
NCI-H522 lung = test system: NCI-H522 lung
PC-3 prostate = test system: PC-3 prostate
MOLT-4 leukemia = test system: MOLT-4 leukemia
UACC-257 melanoma = test system: UACC-257 melanoma
OVCAR-3 ovarian = test system: OVCAR-3 ovarian
SNB-19 CNS = test system: SNB-19 CNS
IGROV1 ovarian = test system: IGROV1 ovarian
NCI/ADR-RES ovarian = test system: NCI/ADR-RES ovarian
ACHN renal = test system: ACHN renal

For `C#CC#CC#CC#CC#CC#CC#CC#CC[C@@H]1OC[C@H](COC(=O)O[C@@H](C(=O)O[C@H]2C[C@@]3(O)[C@@H](OC(=O)c4ccccc4)[C@@H]4[C@]5(OC(C)=O)CO[C@@H]5C[C@H](O)[C@@]4(C)C(=O)[C@H](OC(C)=O)C(=C2C)C3(C)C)[C@@H](NC(=O)c2ccccc2)c2ccccc2)O1`, the GI50 (HCC-2998 colon) was 1260 nM, the TGI (HCC-2998 colon) was > 25 µM and the GI50 (K-562 leukemia) was 1040 nM. For the same compound, the TGI (K-562 leukemia) was > 25 µM, the GI50 (OVCAR-4 ovarian) was > 21 µM and the TGI (OVCAR-4 ovarian) was > 25 µM. The GI50 (KM12 colon) was 683 nM, the TGI (KM12 colon) was > 25 µM and the GI50 (T-47D breast) was 1070 nM. For the same compound, the TGI (T-47D breast) was > 25 µM, the GI50 (SNB-75 CNS) was 114 nM and the TGI (SNB-75 CNS) was 1480 nM. The GI50 (CAKI-1 renal) was 5.85 µM, the TGI (CAKI-1 renal) was > 25 µM and the GI50 (786-0 renal) was > 25 µM. The TGI (786-0 renal) was > 25 µM, the GI50 (SK-OV-3 ovarian) was 3.32 µM and the TGI (SK-OV-3 ovarian) was > 25 µM. The GI50 (CCRF-CEM leukemia) was 1250 nM, the TGI (CCRF-CEM leukemia) was > 25 µM and the GI50 (RXF 393 renal) was > 5.16 µM. The TGI (RXF 393 renal) was > 25 µM, the GI50 (SW-620 colon) was 819 nM and the TGI (SW-620 colon) was > 25 µM. The GI50 (NCI-H23 lung) was 2240 nM, the TGI (NCI-H23 lung) was > 25 µM and the GI50 (OVCAR-5 ovarian) was 1580 nM. The TGI (OVCAR-5 ovarian) was > 25 µM, the GI50 (SK-MEL-28 melanoma) was 3.88 µM and the TGI (SK-MEL-28 melanoma) was > 25 µM. For the same compound, the GI50 (MDA-MB-231 breast) was 4.17 µM, the TGI (MDA-MB-231 breast) was > 25 µM and the GI50 (SK-MEL-5 melanoma) was 3.13 µM. The TGI (SK-MEL-5 melanoma) was > 25 µM, the GI50 (A498 renal) was 1390 nM and the TGI (A498 renal) was > 23.5 µM. The GI50 (HCT-116 colon) was 596 nM, the TGI (HCT-116 colon) was > 25 µM and the GI50 (OVCAR-8 ovarian) was 1570 nM. The TGI (OVCAR-8 ovarian) was > 25 µM, the GI50 (SF-539 CNS) was 1200 nM and the TGI (SF-539 CNS) was > 25 µM. The GI50 (LOX IMVI melanoma) was 708 nM, the TGI (LOX IMVI melanoma) was > 25 µM and the GI50 (M14 melanoma) was 1090 nM. The TGI (M14 melanoma) was 24.9 µM, the GI50 (UACC-62 melanoma) was 5.58 µM and the TGI (UACC-62 melanoma) was > 25 µM. The GI50 (COLO 205 colon) was 665 nM, the TGI (COLO 205 colon) was > 10.8 µM and the GI50 (HT29 colon) was 355 nM. The TGI (HT29 colon) was > 25 µM, the GI50 (RPMI-8226 leukemia) was 436 nM and the TGI (RPMI-8226 leukemia) was > 25 µM. For the same compound, the GI50 (UO-31 renal) was > 25 µM, the TGI (UO-31 renal) was > 25 µM and the GI50 (MALME-3M melanoma) was 2070 nM. For the same compound, the TGI (MALME-3M melanoma) was > 25 µM, the GI50 (SR leukemia) was 862 nM and the TGI (SR leukemia) was > 25 µM. The GI50 (MCF7 breast) was 348 nM, the TGI (MCF7 breast) was > 25 µM and the GI50 (EKVX NSCLC) was > 25 µM. For the same compound, the TGI (EKVX NSCLC) was > 25 µM, the GI50 (U251 CNS) was 1420 nM and the TGI (U251 CNS) was > 25 µM. For the same compound, the GI50 (NCI-H226 lung) was > 21.8 µM, the TGI (NCI-H226 lung) was > 25 µM and the GI50 (SF-268 CNS) was 1930 nM. The TGI (SF-268 CNS) was > 25 µM, the GI50 (NCI-H460 lung) was 185 nM and the TGI (NCI-H460 lung) was > 25 µM. The GI50 (SN12C renal) was 4.36 µM, the TGI (SN12C renal) was > 25 µM and the TGI (SF-295 CNS) was > 25 µM. For the same compound, the GI50 (HOP-62 NSCLC) was 5.13 µM, the TGI (HOP-62 NSCLC) was > 25 µM and the GI50 (HOP-92 NSCLC) was > 18.5 µM. The TGI (HOP-92 NSCLC) was > 25 µM, the GI50 (HS 578T breast) was 673 nM and the TGI (HS 578T breast) was > 25 µM. The GI50 (TK-10 renal) was > 25 µM, the TGI (TK-10 renal) was > 25 µM and the GI50 (HL-60(TB) leukemia) was 819 nM. The TGI (HL-60(TB) leukemia) was > 18.7 µM, the GI50 (BT-549 breast) was 3.71 µM and the TGI (BT-549 breast) was > 25 µM. For the same compound, the GI50 (DU-145 prostate) was 681 nM, the TGI (DU-145 prostate) was > 25 µM and the GI50 (HCT-15 colon) was > 25 µM. For the same compound, the TGI (HCT-15 colon) was > 25 µM, the GI50 (A549 NSCLC) was 1420 nM and the TGI (A549 NSCLC) was > 25 µM. For the same compound, the GI50 (SK-MEL-2 melanoma) was 5.65 µM, the TGI (SK-MEL-2 melanoma) was > 25 µM and the GI50 (MDA-MB-435) was 98.7 nM. For the same compound, the TGI (MDA-MB-435) was 398 nM, the GI50 (NCI-H522 lung) was 1810 nM and the TGI (NCI-H522 lung) was > 25 µM. For the same compound, the GI50 (PC-3 prostate) was 1580 nM, the TGI (PC-3 prostate) was > 25 µM and the GI50 (MOLT-4 leukemia) was 1850 nM. The TGI (MOLT-4 leukemia) was > 25 µM, the GI50 (UACC-257 melanoma) was 6.61 µM and the TGI (UACC-257 melanoma) was > 25 µM. For the same compound, the GI50 (OVCAR-3 ovarian) was 682 nM, the TGI (OVCAR-3 ovarian) was > 25 µM and the GI50 (SNB-19 CNS) was 3.88 µM. For the same compound, the TGI (SNB-19 CNS) was > 25 µM, the GI50 (IGROV1 ovarian) was 1290 nM and the TGI (IGROV1 ovarian) was > 25 µM. For the same compound, the GI50 (NCI/ADR-RES ovarian) was > 25 µM, the TGI (NCI/ADR-RES ovarian) was > 25 µM and the GI50 (ACHN renal) was > 25 µM. For the same compound, the TGI (ACHN renal) was > 25 µM.
